Results from US11572341B2, “Biguanide compound and use thereof” (ImmunoMet Therapeutics Inc., priority 2014, dated 2023).
Where a name gives a salt, the structure may show the parent alone.

How the values were obtained:
[1] = system: HCT116 cells; assay: Inhibitory effect against cancer cell proliferation (MTT); format: cell-based, human; settings: Homo sapiens, HCT-116; HCT116, MTT, 48 hours; read-out: IC50 (uM) @ HCT116
Description: The formazane crystals thus formed were dissolved using dimethyl sulfoxide (DMSO) and absorbance of the solution was measured at 560 nm. After culturing for 48 hours, […] synthesized in Examples was indicated as cell viability (%) according to each treated concentration.

[2] = system: AMPKa [pT172]; assay: AMPKa activation [pT172] in MCF7 cell; format: cell-based

SMILES	IC50 [1]	AMPKa activation [pT172] (Unit/ml) @ MCF7 cell ([2]; 5 uM)	AMPKa activation [pT172] (Unit/ml) @ MCF7 cell ([2]; 10 uM)	AMPKa activation [pT172] (Unit/ml) @ MCF7 cell ([2]; 50 uM)
CC1CC(=O)N=C(NC(=N)N2CCCCC2)N1.Cl (centres unmarked) [Example 154, N-(6-methyl-4-oxo-1,4,5-tetrahydropyrimidin-2-yl)piperidin-1-carboximidamide Hydrochloride]	> 100 µM	2.9 Unit/ml	2.9 Unit/ml	2.8 Unit/ml
CCCN(CCC)C(=N)NC(=N)N(C1CCCCC1)C1CCCCC1.Cl [Example 15, N1,N1-dipropyl-N5,N5-dicyclohexyl Biguanide Hydrochloride]	> 100 µM	–	–	6.1 Unit/ml
CCOC1CCN(C(=N)NC(=N)N2CCCC(C)C2)CC1 (centres unmarked) [Example 46, N1-(3-methyl)piperidin-N5-(4-ethos)piperidine Biguanide Hydrochloride]	> 100 µM	3.8 Unit/ml	3.6 Unit/ml	5.4 Unit/ml
CN1CCN(C(=N)NC(=N)Nc2ccccc2F)CC1.Cl [Example 34, N1-(4-methyl)piperazin-N5-(2-fluoro)phenyl Biguanide Hydrochloride]	> 100 µM	4.5 Unit/ml	3.7 Unit/ml	7.0 Unit/ml
CN1CCN(C(=N)NC(=N)Nc2cc(F)c(F)c(F)c2)CC1.Cl [Example 40, N1-(4-methyl)piperazin-N5-(3,4,5-trifluoro)phenyl Biguanide Hydrochloride]	> 100 µM	7.0 Unit/ml	5.1 Unit/ml	7.2 Unit/ml
CC1CCCN(C(=N)NC(=N)NC2CCCC2)C1.Cl (centres unmarked) [Example 44, N1-(3-methyl)piperidin-N5-cyclopentyl Biguanide Hydrochloride]	> 100 µM	4.5 Unit/ml	5.2 Unit/ml	14.8 Unit/ml
CC1CCN(C(=N)NC(=N)Nc2cccc(C(F)(F)F)c2)CC1.Cl [Example 50, N1-(4-methyl)piperidin-N5-(3-trifluoromethyl)phenyl Biguanide Hydrochloride]	6.7 µM	8.3 Unit/ml	11.5 Unit/ml	cell death
Cl.N=C(N)NC(=N)N1CCCCCC1 [Example 139, N1-azepane Biguanide Hydrochloride]	> 100 µM	5.7 Unit/ml	5.8 Unit/ml	10.9 Unit/ml
CCOC1CCN(C(=N)NC(=N)Nc2ccc(C(F)(F)F)cc2)CC1.Cl [Example 23, N1-(4-ethoxy)piperidin-N5-(4-trifluoromethyl)phenyl Biguanide Hydrochloride]	12.7 µM	7.7 Unit/ml	6.6 Unit/ml	cell death
CC/N=C(\NCCc1ccc2c(c1)OCO2)NC(=N)N.Cl [Example 101, N1-2-(benzo[d][1,3]dioxol-5-yl)ethyl-N2-ethyl Biguanide Hydrochloride]	> 100 µM	4.1 Unit/ml	3.6 Unit/ml	5.9 Unit/ml
CN1CCN(C(=N)NC(=N)NCc2cccc(C(F)(F)F)c2)CC1.Cl [Example 20, N1-(4-methyl)piperazin-N5-(3-trifluoromethyl)benzyl Biguanide Hydrochloride]	> 100 µM	2.9 Unit/ml	4.5 Unit/ml	5.6 Unit/ml
CC1CC(C)CN(C(=N)NC(=N)Nc2ccc(F)c(C(F)(F)F)c2)C1.Cl (centres unmarked) [Example 65, N1-(3,5-dimethyl)piperidin-N5-(3-trifluoromethyl-4-fluoro)phenyl Biguanide Hydrochloride]	2.5 µM	15.0 Unit/ml	20.1 Unit/ml	cell death
COC1CCN(C(=N)NC(=N)N2CCCC(C)C2)CC1.Cl (centres unmarked) [Example 45, N1-(3-methyl)piperidin-N5-(4-methoxy)piperidine Biguanide Hydrochloride]	> 100 µM	3.0 Unit/ml	4.0 Unit/ml	3.5 Unit/ml
CN1CCN(C(=N)NC(=N)NCc2ccc(C(F)(F)F)cc2)CC1.Cl [Example 18, N1-(4-methyl)piperazin-N5-(4-trifluoromethyl)benzyl Biguanide Hydrochloride]	> 100 µM	7.1 Unit/ml	8.6 Unit/ml	13.3 Unit/ml
CCCCCCN(CCCCCC)C(=N)NC(=N)N.Cl [Example 133, N1,N1-dihexyl Biguanide Hydrochloride]	> 100 µM	–	–	7.1 Unit/ml
CC(=O)c1ccc(NC(=N)NC(=N)N)cc1.Cl [Example 117, N1-(4-acetyl)phenyl Biguanide Hydrochloride]	> 100 µM	–	–	6.2 Unit/ml
CCCCN(C)C(=N)NC(=N)N.Cl [Example 134, N1-methyl-N1-butyl Biguanide Hydrochloride]	> 100 µM	–	–	16.2 Unit/ml
CC1CNC(NC(=N)N2CCCCC2)=NC1=O.Cl (centres unmarked) [Example 155, N-(5-methyl-4-oxo-1,4,5,6-tetrahydropyrimidin-2-yl)piperidin-1-carboximidamide Hydrochloride]	> 100 µM	3.3 Unit/ml	2.8 Unit/ml	3.9 Unit/ml
Cl.N=C(N)NC(=N)NCCc1ccc2c(c1)OCO2 [Example 143, N1-2-(benzo[d][1,3]dioxol-5-yl)ethyl Biguanide Hydrochloride]	124 µM	5.5 Unit/ml	5.7 Unit/ml	7.2 Unit/ml
